Measurements published in US20030004172A1, “Fused pyrimidinone matrix metalloproteinase inhibitors” (priority 2001, published 2003).

Target: MMP-13CD (catalytic domain of collagenase-3) (Homo sapiens, UniProt P45452)
Assay: Thiopeptolide substrate hydrolysis inhibition assay, MMP-13CD
Type: biochemical
Conditions: Table I; thiopeptolide substrate, HEPES pH 7.0, 22° C.; read-out: MMP-13CD IC50
Excerpt: Thiopeptolide substrates show virtually no decomposition or hydrolysis at or below neutral pH in the absence of a matrix metalloproteinase enzyme.

Row | IC50 | SMILES
1 | 2900 nM | COc1ccc(CNC(=O)c2cc3c(=O)n(CCNS(=O)(=O)c4ccc(Cl)cc4)c(=O)n(C)c3s2)cc1 [Example 231, 3-[2-(4-Chloro-benzenesulfonylamino)-ethyl]-1-methyl-2,4-dioxo-1,2,3,4-tetrahydro-thieno[2,3-d]pyrimidine-6-carboxylic acid 4-methoxy-benzylamide]
2 | 69 nM | COc1cccc(CNC(=O)c2cc3c(=O)n(CCOc4ccc(Br)cc4)c(=O)n(C)c3s2)c1 [Example 233, 3-[2-(4-Bromo-phenoxy)-ethyl]-1-methyl-2,4-dioxo-1,2,3,4-tetrahydro-thieno[2,3-d]pyrimidine-6-carboxylic acid 3-methoxy-benzylamide]
3 | 150 nM | COc1ccc(CNC(=O)c2cc3c(=O)n(CCOc4ccc(F)cc4)c(=O)n(C)c3s2)cc1 [Example 234, 3-[2-(4-Fluoro-phenoxy)-ethyl]-1-methyl-2,4-dioxo-1,2,3,4-tetrahydro-thieno[2,3-d]pyrimidine-6-carboxylic acid 4-methoxy-benzylamide]
4 | 18000 nM | COc1ccc(CNC(=O)c2cc3c(=O)n(CCN)c(=O)n(C)c3s2)cc1 [Example 235, 3-(2-aminoethyl)-1-methyl-2,4-dioxo-1,2,3,4-tetrahydro-thieno[2,3-d]pyrimidine-6-carboxylic acid 4-methoxy-benzylamide]
5 | 49.5 nM | COc1cccc(CNC(=O)c2cc3c(=O)n(CCOc4ccc(F)cc4)c(=O)n(C)c3s2)c1 [Example 236, 3-[2-(4-fluoro-phenoxy)-ethyl]-1-methyl-2,4-dioxo-1,2,3,4-tetrahydro-thieno[2,3-d]pyrimidine-6-carboxylic acid 3-methoxy-benzylamide]
6 | 92.5 nM | COc1cccc(CNC(=O)c2cc3c(=O)n(CCOc4ccc(Cl)cc4)c(=O)n(C)c3s2)c1 [Example 237, 3-[2-(4-chloro-phenoxy)-ethyl]-1-methyl-2,4-dioxo-1,2,3,4-tetrahydro-thieno[2,3-d]pyrimidine-6-carboxylic acid 3-methoxy-benzylamide]
7 | 55.5 nM | COC(=O)c1ccc(Cn2c(=O)c3cc(C(=O)NCc4ccc(OC)cc4)sc3n(C)c2=O)cc1C [Example 238, 4-[6-(4-Methoxy-benzylcarbamoyl)-1-methyl-2,4-dioxo-1,4-dihydro-2H-thieno[2,3-d]pyrimidin-3-ylmethyl]-2-methyl-benzoic acid methyl ester]
8 | 58.5 nM | COC(=O)c1ccc(Cn2c(=O)c3cc(C(=O)NCc4ccc(OC)cc4)sc3n(C)c2=O)cc1 [Example 239, 4-[6-(4-Methoxy-benzylcarbamoyl)-1-methyl-2,4-dioxo-1,4-dihydro-2H-thieno[2,3-d]pyrimidin-3-ylmethyl]-benzoic acid methyl ester]
9 | 180 nM | COC(=O)c1ccc(Cn2c(=O)c3cc(C(=O)NCc4cccc(OC)c4)sc3n(C)c2=O)cc1OC [Example 240, 2-Methoxy-4-[6-(3-methoxy-benzylcarbamoyl)-1-methyl-2,4-dioxo-1,4-dihydro-2H-thieno[2,3-d]pyrimidin-3-ylmethyl]-benzoic acid methyl ester]
10 | 19.5 nM | COC(=O)c1ccc(Cn2c(=O)c3cc(C(=O)NCc4cccc(OC)c4)sc3n(C)c2=O)cc1C [Example 241, 4-[6-(3-Methoxy-benzylcarbamoyl)-1-methyl-2,4-dioxo-1,4-dihydro-2H-thieno[2,3-d]pyrimidin-3-ylmethyl]-2-methyl-benzoic acid methyl ester]
11 | 3000 nM | COc1ccc(CNC(=O)c2cc3c(=O)n(CCC(=O)c4ccccc4)c(=O)n(C)c3s2)cc1 [Example 242, 1-Methyl-2,4-dioxo-3-(3-oxo-3-phenyl-propyl)-1,2,3,4-tetrahydro-thieno[2,3-d]pyrimidine-6-carboxylic acid 4-methoxy-benzylamide]
12 | 1400 nM | COc1cccc(CNC(=O)c2cc3c(=O)n(CCC(=O)c4ccccc4)c(=O)n(C)c3s2)c1 [Example 243, 1-Methyl-2,4-dioxo-3-(3-oxo-3-phenyl-propyl)-1,2,3,4-tetrahydro-thieno[2,3-d]pyrimidine-6-carboxylic acid 3-methoxy-benzylamide]
13 | 1250 nM | COc1cccc(CNC(=O)c2cc3c(=O)n(CCS(=O)(=O)c4cccc(C(F)(F)F)c4)c(=O)n(C)c3s2)c1 [Example 244, 1-Methyl-2,4-dioxo-3-[2-(3-trifluoromethyl-benzenesulfonyl)-ethyl]-1,2,3,4-tetrahydro-thieno[2,3-d]pyrimidine-6-carboxylic acid 3-methoxy-benzylamide]
14 | 30000 nM | COc1ccc(CNC(=O)c2cc3c(=O)n(CCS(=O)(=O)c4cccc(C(F)(F)F)c4)c(=O)n(C)c3s2)cc1 [Example 245, 1-Methyl-2,4-dioxo-3-[2-(3-trifluoromethyl-benzenesulfonyl)-ethyl]-1,2,3,4-tetrahydro-thieno[2,3-d]pyrimidine-6-carboxylic acid 4-methoxy-benzylamide]
15 | 7200 nM | COc1ccc(CNC(=O)c2cc3c(=O)n(CCS(=O)(=O)c4ccc(Cl)cc4)c(=O)n(C)c3s2)cc1 [Example 247, 3-[2-(4-Chloro-benzenesulfonyl)-ethyl]-1-methyl-2,4-dioxo-1,2,3,4-tetrahydro-thieno[2,3-d]pyrimidine-6-carboxylic acid 4-methoxy-benzylamide]
16 | 7800 nM | Cc1cc(Cn2c(=O)c3cc(C(N)=O)sc3n(C)c2=O)ccc1C(=O)O [Example 249]
17 | 7.65 nM | Cc1cc(Cn2c(=O)c3cc(C(=O)NCc4cccc(O)c4)sc3n(C)c2=O)ccc1C(=O)O [Example 250, 4-[6-(3-hydroxy-benzylcarbamoyl)-1-methyl-2,4-dioxo-1,4-dihydro-2H-thieno[2,3-d]pyrimidin-3-ylmethyl]-2-methyl-benzoic acid]
18 | 655 nM | Cn1c(=O)n(Cc2ccc(C(=O)O)c(O)c2)c(=O)c2cc(C(N)=O)sc21 [Example 251]
19 | 24000 nM | COc1cccc(CNC(=O)c2cc3c(=O)n(CCN)c(=O)n(C)c3s2)c1 [Example 252, 3-(2-Aminoethyl)-1-methyl-2,4-dioxo-1,2,3,4-tetrahydro-thieno[2,3-d]pyrimidine-6-carboxylic acid 3-methoxy-benzylamide]
20 | 810 nM | COc1ccc(CNC(=O)c2cc3c(=O)n(C(C)c4ccccc4)c(=O)n(C)c3s2)cc1 (stereo not shown) [Example 253]
21 | 1500 nM | COc1ccc(CNC(=O)c2cc3c(=O)n(CCC(=O)c4ccccc4)c(=O)n(C)c3s2)cc1 [Example 254]
22 | 14000 nM | COc1ccc(CNC(=O)c2cc3c(=O)n(CC[C@@H](C)CCC=C(C)C)c(=O)n(C)c3s2)cc1 [Example 255]
23 | 27500 nM | CCCCC(CC)Cn1c(=O)c2cc(C(=O)NCc3ccc(OC)cc3)sc2n(C)c1=O (stereo not shown) [Example 256]
24 | 1500 nM | COc1ccc(CNC(=O)c2cc3c(=O)n(CCCCCC#N)c(=O)n(C)c3s2)cc1 [Example 257]

Row | IC50 | SMILES
25 | 270 nM | C/C=C/Cn1c(=O)c2cc(C(=O)NCc3ccc(OC)cc3)sc2n(C)c1=O [Example 258]
26 | 30000 nM | COc1ccc(CNC(=O)c2cc3c(=O)n(CCc4cccc5ccccc45)c(=O)n(C)c3s2)cc1 [Example 259]
27 | 63 nM | CC/C=C/Cn1c(=O)c2cc(C(=O)NCc3ccc(OC)cc3)sc2n(C)c1=O [Example 260]
28 | 580 nM | COc1ccc(CNC(=O)c2cc3c(=O)n(CCSc4ccccc4)c(=O)n(C)c3s2)cc1 [Example 261]
29 | 3400 nM | CCC(C)n1c(=O)c2cc(C(=O)NCc3ccc(OC)cc3)sc2n(C)c1=O (stereo not shown) [Example 262]
30 | 2150 nM | C=C(C)Cn1c(=O)c2cc(C(=O)NCc3ccc(OC)cc3)sc2n(C)c1=O [Example 263]
31 | 7400 nM | CCC(CC)n1c(=O)c2cc(C(=O)NCc3ccc(OC)cc3)sc2n(C)c1=O [Example 264]
32 | 38 nM | CCC#CCn1c(=O)c2cc(C(=O)NCc3ccc(OC)cc3)sc2n(C)c1=O [Example 265]
33 | 4000 nM | COc1ccc(CNC(=O)c2cc3c(=O)n(CCS(=O)(=O)c4ccccc4)c(=O)n(C)c3s2)cc1 [Example 266]
34 | 1100 nM | COc1ccc(CNC(=O)c2cc3c(=O)n(CC=C(C)C)c(=O)n(C)c3s2)cc1 [Example 267]
35 | 3600 nM | COc1ccc(CNC(=O)c2cc3c(=O)n(CCS(=O)(=O)c4ccc(F)cc4)c(=O)n(C)c3s2)cc1 [Example 268]
36 | 26000 nM | COc1ccc(CNC(=O)c2cc3c(=O)n(CCS(=O)(=O)c4ccc(C)cc4)c(=O)n(C)c3s2)cc1 [Example 269]
37 | 1800 nM | COc1ccc(CNC(=O)c2cc3c(=O)n(CCC(=O)c4ccc(F)cc4)c(=O)n(C)c3s2)cc1 [Example 270]
38 | 5900 nM | COc1ccc(CNC(=O)c2cc3c(=O)n(CCC(=O)c4ccc(Cl)cc4)c(=O)n(C)c3s2)cc1 [Example 271]
39 | 30000 nM | COc1ccc(CNC(=O)c2cc3c(=O)n(CCNC(=O)c4ccccc4)c(=O)n(C)c3s2)cc1 [Example 272]
40 | 18 nM | COc1ccc(CNC(=O)c2cc3c(=O)n(Cc4ccc5nonc5c4)c(=O)n(C)c3s2)cc1 [Example 274]
41 | 36 nM | COc1ccc(CNC(=O)c2cc3c(=O)n(CCOc4ccccc4)c(=O)n(C)c3s2)cc1 [Example 275]
42 | 230 nM | COC(=O)Nc1cc(Cn2c(=O)c3cc(C(=O)NCc4ccc(OC)cc4)sc3n(C)c2=O)on1 [Example 276]
43 | 20000 nM | COc1ccc(CNC(=O)c2cc3c(=O)n(CC(=O)C(CC(=O)OC(C)(C)C)NC(=O)OCc4ccccc4)c(=O)n(C)c3s2)cc1 (stereo not shown) [Example 277]
44 | 7600 nM | COc1cccc(CNC(=O)c2cc3c(=O)n(CCSc4ccc(Cl)cc4)c(=O)n(C)c3s2)c1 [Example 278]
45 | 3500 nM | COc1cccc(CNC(=O)c2cc3c(=O)n(C(C)c4ccccc4)c(=O)n(C)c3s2)c1 (stereo not shown) [Example 279]
46 | 17000 nM | COc1cccc(CNC(=O)c2cc3c(=O)n(CC[C@@H](C)CCC=C(C)C)c(=O)n(C)c3s2)c1 [Example 280]
47 | 8900 nM | CCCCC(CC)Cn1c(=O)c2cc(C(=O)NCc3cccc(OC)c3)sc2n(C)c1=O (stereo not shown) [Example 281]
48 | 10000 nM | COc1cccc(CNC(=O)c2cc3c(=O)n(CCS(=O)(=O)Cc4ccccc4)c(=O)n(C)c3s2)c1 [Example 282]

Row | SMILES | IC50
49 | COc1ccc(CNC(=O)c2cc3c(=O)n(CCOc4ccc(Br)cc4)c(=O)n(C)c3s2)cc1 [Example 273] | 59 nM
